The target in test [1] is T1, NAA25 N-alpha-acetyltransferase 25, NatB auxiliary subunit (Homo sapiens, UniProt Q14CX7).
T1 construct: isoTOP-ABPP experiments performed in cell lysates (in vitro); endogenous in cells; host or cells: soluble proteome of human cancer cell lines (MDA-MB-231; Ramos and Jurkat also prepared)
Briefly: competitive isoTOP-ABPP. It is filed as binding. In outline: (§1)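 Lysate + fragment (50 μM activated ester / 100 μM guanidinylating agent) or DMSO → 0.1 mM STP-alkyne, 1 h, RT → CuAAC to TEV tags (compound light, DMSO heavy) → LC-MS. R = heavy/light MS1 area; liganded lysine if R≥4.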

In test [2] the target is T2, AP1G1 AP-1 complex subunit gamma-1 (Homo sapiens, UniProt O43747).
T2 construct: isoTOP-ABPP experiments performed in cell lysates (in vitro); endogenous in cells; host or cells: MDA-MB-231 soluble lysate
T2 sequence (O43747 1-822): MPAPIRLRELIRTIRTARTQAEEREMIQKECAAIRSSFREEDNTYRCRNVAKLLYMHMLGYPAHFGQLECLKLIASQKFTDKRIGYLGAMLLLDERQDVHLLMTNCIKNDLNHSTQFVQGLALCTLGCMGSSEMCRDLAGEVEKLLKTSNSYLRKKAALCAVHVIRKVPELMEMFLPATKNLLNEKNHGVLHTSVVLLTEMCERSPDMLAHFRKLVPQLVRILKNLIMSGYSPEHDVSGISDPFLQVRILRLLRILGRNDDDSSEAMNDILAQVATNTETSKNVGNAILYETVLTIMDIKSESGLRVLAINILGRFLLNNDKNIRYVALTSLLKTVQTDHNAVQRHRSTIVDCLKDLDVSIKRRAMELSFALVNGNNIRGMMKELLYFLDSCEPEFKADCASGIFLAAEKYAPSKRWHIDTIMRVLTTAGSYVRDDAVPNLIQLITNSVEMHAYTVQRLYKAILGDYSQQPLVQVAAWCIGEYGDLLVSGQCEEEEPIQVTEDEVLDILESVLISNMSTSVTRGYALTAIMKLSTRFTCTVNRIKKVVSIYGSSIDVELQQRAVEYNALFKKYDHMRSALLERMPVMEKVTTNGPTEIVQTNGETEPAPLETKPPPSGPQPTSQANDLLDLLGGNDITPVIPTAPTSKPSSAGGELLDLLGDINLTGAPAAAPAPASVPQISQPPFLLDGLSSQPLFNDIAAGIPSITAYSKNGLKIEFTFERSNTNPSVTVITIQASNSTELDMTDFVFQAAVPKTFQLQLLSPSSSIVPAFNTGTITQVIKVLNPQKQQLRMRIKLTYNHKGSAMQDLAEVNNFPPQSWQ
Briefly: competitive isoTOP-ABPP. Type of test: binding. In outline:
as §1

SMILES strings stand for the structures.

T1 sequence (Q14CX7 whole entry): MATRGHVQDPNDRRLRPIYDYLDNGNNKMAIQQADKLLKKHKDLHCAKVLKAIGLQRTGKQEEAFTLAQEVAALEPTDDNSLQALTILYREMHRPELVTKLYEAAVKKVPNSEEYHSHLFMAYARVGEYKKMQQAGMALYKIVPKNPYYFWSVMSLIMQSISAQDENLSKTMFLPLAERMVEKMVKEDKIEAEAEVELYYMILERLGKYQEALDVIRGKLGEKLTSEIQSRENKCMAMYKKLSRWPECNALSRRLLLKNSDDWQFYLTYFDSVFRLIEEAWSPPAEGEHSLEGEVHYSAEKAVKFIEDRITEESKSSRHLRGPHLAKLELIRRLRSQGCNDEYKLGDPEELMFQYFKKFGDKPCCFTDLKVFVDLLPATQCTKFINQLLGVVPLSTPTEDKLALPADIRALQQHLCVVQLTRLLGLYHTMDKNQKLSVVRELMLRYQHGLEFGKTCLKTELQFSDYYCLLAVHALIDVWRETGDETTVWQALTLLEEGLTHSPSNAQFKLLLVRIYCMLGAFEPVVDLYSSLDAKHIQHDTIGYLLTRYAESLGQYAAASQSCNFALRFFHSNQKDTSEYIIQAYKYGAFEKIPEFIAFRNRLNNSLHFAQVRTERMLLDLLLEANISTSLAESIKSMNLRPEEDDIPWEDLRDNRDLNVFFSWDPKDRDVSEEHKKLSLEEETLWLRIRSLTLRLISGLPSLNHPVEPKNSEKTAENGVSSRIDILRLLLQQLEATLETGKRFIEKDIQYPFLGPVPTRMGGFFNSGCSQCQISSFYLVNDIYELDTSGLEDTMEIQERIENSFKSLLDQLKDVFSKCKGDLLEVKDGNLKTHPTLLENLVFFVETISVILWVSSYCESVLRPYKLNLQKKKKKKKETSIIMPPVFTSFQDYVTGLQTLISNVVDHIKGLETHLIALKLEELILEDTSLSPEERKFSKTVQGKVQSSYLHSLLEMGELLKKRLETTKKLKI

In the case of `O=C(CCc1ccc2c(c1)OCO2)Oc1ccc([N+](=O)[O-])cc1[N+](=O)[O-]` [fragment 45, 2,4-Dinitrophenyl 3-(benzo[d][1,3]dioxol-5-yl)propanoate], the “isoTOP-ABPP ratio, lysine Q14CX7_K575” value in test [1] (50 uM_231_sol_in vitro) is reported as 1.2. In test [2] (50 uM_231_sol_in vitro), the “isoTOP-ABPP ratio, lysine O43747_K214” value came to 1.2.

Regarding `O=C(Oc1c(F)c(F)cc(F)c1F)c1cc(C(F)(F)F)cc(C(F)(F)F)c1` [fragment 48, 2,3,5,6-Tetrafluorophenyl 3,5-bis(trifluoromethyl)benzoate], the “isoTOP-ABPP ratio, lysine Q14CX7_K575” value in test [1] (50 uM_231_sol_in vitro) came out at 1.1. The “isoTOP-ABPP ratio, lysine O43747_K214” value in test [2] (50 uM_231_sol_in vitro) is recorded as 0.8.

With `COC(=O)NC(=NC(=O)OCC1c2ccccc2-c2ccccc21)n1cccn1` [fragment 49, N-Methoxycarbonyl-N′-9-fluorenylmethoxycarbonyl-pyrazole-1-carboxamidine], in test [1] (100 uM_231_sol_in vitro), the “isoTOP-ABPP ratio, lysine Q14CX7_K575” value was 1.1. The “isoTOP-ABPP ratio, lysine O43747_K214” value in test [2] (100 uM_231_sol_in vitro) was determined as 1.0.

On to `NC(=O)c1cc(C(F)(F)F)cc(C(F)(F)F)c1` [fragment 51, reference compound], for which, in test [1] (50 uM_231_sol_in vitro), the “isoTOP-ABPP ratio, lysine Q14CX7_K575” value was 1.0. In test [2] (50 uM_231_sol_in vitro), the “isoTOP-ABPP ratio, lysine O43747_K214” value stood at 0.9.

These data come from US20210255193A1, “LYSINE REACTIVE PROBES AND USES THEREOF” (The Scripps Research Institute, priority 2017, published 2021).
